Among the test systems are CAKI-1 renal; CCRF-CEM leukemia; EKVX NSCLC; HCT-116 colon; HOP-62 NSCLC; LOX IMVI melanoma; MCF7 breast; MDA-MB-231 breast; MDA-N; MOLT-4 leukemia; NCI/ADR-RES ovarian; OVCAR-3 ovarian; SK-OV-3 ovarian; SN12C renal; SR leukemia; TK-10 renal; U251 CNS; UACC-257 melanoma.
Common to all, as to test: DTP human tumour cell line panel, 48 h

The structures appear in SMILES notation.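 In this assay, cells in 96-well plates receive the compound at five concentrations for 48 hours. Endpoints are linearly interpolated between the surrounding concentrations. TGI denotes the concentration required for complete inhibition of growth.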

The values below come from PubChem BioAssay (NCI).

What is called TGI is the concentration giving total growth inhibition. Higher therefore signals lower sensitivity of the cells. Consider `CC(=O)N1CN2C(=O)CCC2c2ccccc21` (stereo not given), for which the concentration for total growth inhibition (TGI) with CAKI-1 renal, with CCRF-CEM leukemia, with EKVX NSCLC, in the experiment on HCT-116 colon, in the experiment with HOP-62 NSCLC and in the experiment on LOX IMVI melanoma was over 100 µM in each case. The TGI in the experiment on MCF7 breast, with MDA-MB-231 breast, in the experiment with MDA-N, in the experiment on MOLT-4 leukemia, in the experiment with NCI/ADR-RES ovarian and in the experiment on OVCAR-3 ovarian was over 100 µM each time. The TGI is over 100 µM in the experiment with SK-OV-3 ovarian; over 100 µM in the experiment on SN12C renal; 97.9 µM in the experiment with SR leukemia; over 100 µM with TK-10 renal; over 100 µM in the experiment on U251 CNS; over 100 µM with UACC-257 melanoma.

With `O=C1CS(=O)(=O)C(c2cccc(Oc3ccccc3)c2)N1c1cccc(Cl)c1` (stereo not given), the TGI is 83.5 µM in the experiment on CAKI-1 renal; over 100 µM in the experiment with CCRF-CEM leukemia; 61.9 µM in the experiment on EKVX NSCLC; 29.6 µM in the experiment on HCT-116 colon; over 100 µM in the experiment with HOP-62 NSCLC; 32.1 µM in the experiment on LOX IMVI melanoma. For the same molecule, the TGI was 32.4 µM with MCF7 breast; over 100 µM in the experiment with MDA-MB-231 breast; 49.2 µM with MDA-N; 58.1 µM in the experiment on MOLT-4 leukemia; over 100 µM in the experiment on NCI/ADR-RES ovarian; 95.1 µM in the experiment on OVCAR-3 ovarian. Moreover, the TGI with SK-OV-3 ovarian is over 100 µM; in the experiment with SN12C renal it was over 100 µM; in the experiment on SR leukemia it was 41.2 µM; with TK-10 renal, 63.1 µM; in the experiment on U251 CNS it was 47.2 µM; in the experiment with UACC-257 melanoma, 46.4 µM.

For the molecule `CC(C)(C)OC(=O)CC(NC(=O)OC(C)(C)C)C(=O)N[C@@H]1CCCC[C@H]1C(=O)OCc1ccccc1` (stereo not given in full), the TGI in the experiment on CAKI-1 renal is over 100 µM; with CCRF-CEM leukemia, 83.2 µM; in the experiment on EKVX NSCLC, over 100 µM; in the experiment with HCT-116 colon it was 52.5 µM; with HOP-62 NSCLC, over 100 µM; in the experiment on LOX IMVI melanoma, over 100 µM. In addition, the TGI was 85.5 µM with MCF7 breast; over 100 µM in the experiment with MDA-MB-231 breast; over 100 µM in the experiment on MDA-N; 89.1 µM in the experiment with MOLT-4 leukemia; over 100 µM with NCI/ADR-RES ovarian; over 100 µM in the experiment on OVCAR-3 ovarian. The TGI with SK-OV-3 ovarian is 65 µM; in the experiment with SN12C renal, 48.7 µM; in the experiment on SR leukemia it was over 100 µM; in the experiment with TK-10 renal it was 79.6 µM; in the experiment with U251 CNS, 61.4 µM; in the experiment with UACC-257 melanoma it was 89.4 µM.

With `N#CC(c1ccnc(Cl)n1)c1nc2ccccc2s1` (stereo not given), the TGI in the experiment on CAKI-1 renal was over 45.4 µM; in the experiment on CCRF-CEM leukemia, 0.928 µM; in the experiment on EKVX NSCLC it was over 74.6 µM; in the experiment with HCT-116 colon it was 9.38 µM; with HOP-62 NSCLC it was 56.8 µM; with LOX IMVI melanoma, over 33.9 µM. Besides, the TGI in the experiment on MCF7 breast was 40.6 µM; in the experiment with MDA-MB-231 breast, 12.3 µM; with MDA-N, 12.9 µM; in the experiment on MOLT-4 leukemia, over 39.3 µM; in the experiment on NCI/ADR-RES ovarian it was 19.7 µM; in the experiment with OVCAR-3 ovarian, 26.2 µM. Further, the TGI was 16 µM in the experiment with SK-OV-3 ovarian; 10.1 µM in the experiment with SN12C renal; 28.7 µM in the experiment with SR leukemia; over 60.7 µM in the experiment on TK-10 renal; 13.3 µM in the experiment with U251 CNS; 41.2 µM with UACC-257 melanoma.

In the case of `O=C(c1ccco1)N(Cc1ccco1)C(=S)Nc1ccccc1`, the TGI in the experiment with CAKI-1 renal is 22.1 µM; with CCRF-CEM leukemia it was 18.7 µM; in the experiment with EKVX NSCLC, over 96.5 µM; in the experiment with HCT-116 colon, 30.7 µM; in the experiment on HOP-62 NSCLC, over 100 µM; with LOX IMVI melanoma it was 27.1 µM. For the same molecule, the TGI was determined as 49 µM in the experiment with MCF7 breast; 41.1 µM with MDA-MB-231 breast; 38.1 µM with MDA-N; 27.6 µM with MOLT-4 leukemia; 55.3 µM with NCI/ADR-RES ovarian; 59.7 µM in the experiment on OVCAR-3 ovarian. Further, the TGI was over 100 µM in the experiment on SK-OV-3 ovarian; 45.4 µM with SN12C renal; 13.2 µM in the experiment on SR leukemia; over 77.4 µM in the experiment with TK-10 renal; 91 µM in the experiment with U251 CNS; 57.6 µM in the experiment with UACC-257 melanoma.

For the molecule `CC(=O)Nc1ccc(N=C2C(c3ccccc3)=C(SC3=C(c4ccccc4)C(=Nc4ccc(NC(C)=O)cc4)c4ccccc43)c3ccccc32)cc1`, the concentration for total growth inhibition (TGI) in the experiment on CAKI-1 renal, with CCRF-CEM leukemia, in the experiment with EKVX NSCLC, with HCT-116 colon, in the experiment with HOP-62 NSCLC and with LOX IMVI melanoma was over 100 µM in each case. In addition, the TGI is over 100 µM in the experiment on MCF7 breast; over 100 µM in the experiment on MDA-MB-231 breast; over 100 µM with MDA-N; 63 µM with MOLT-4 leukemia; 72.9 µM with NCI/ADR-RES ovarian; over 100 µM in the experiment with OVCAR-3 ovarian. Moreover, the TGI in the experiment on SK-OV-3 ovarian, with SN12C renal, with SR leukemia, in the experiment with TK-10 renal, in the experiment on U251 CNS and in the experiment on UACC-257 melanoma was over 100 µM each time.

For the molecule `CC(=O)c1c(SCCN2CCCC2)n(-c2ccccc2)c(=S)n(-c2ccccc2)c1=O`, the TGI in the experiment on CAKI-1 renal came out at 10.2 µM; with CCRF-CEM leukemia, 4.01 µM; in the experiment on EKVX NSCLC it was 37.3 µM; in the experiment on HCT-116 colon, 18.6 µM; with HOP-62 NSCLC, 55 µM; in the experiment with LOX IMVI melanoma it was 9.04 µM. In addition, the TGI is 3.01 µM in the experiment with MCF7 breast; 23.4 µM in the experiment on MDA-MB-231 breast; 19.9 µM in the experiment with MDA-N; over 23.4 µM in the experiment with MOLT-4 leukemia; over 85.2 µM with NCI/ADR-RES ovarian; 7.22 µM in the experiment with OVCAR-3 ovarian. The TGI is over 100 µM with SK-OV-3 ovarian; 20.5 µM in the experiment with SN12C renal; over 100 µM in the experiment with SR leukemia; 8.5 µM in the experiment with TK-10 renal; 47.9 µM with U251 CNS; 9.17 µM in the experiment with UACC-257 melanoma.

For `COC(=O)C1CCOC(C)N1C(=O)OC(C)(C)C` (stereo not given), the TGI with CAKI-1 renal, with CCRF-CEM leukemia, with EKVX NSCLC, in the experiment on HCT-116 colon, in the experiment with HOP-62 NSCLC and with LOX IMVI melanoma was over 100 µM in each case. Moreover, the TGI with MCF7 breast, with MDA-MB-231 breast, in the experiment with MDA-N, with MOLT-4 leukemia, in the experiment on NCI/ADR-RES ovarian and in the experiment with OVCAR-3 ovarian was over 100 µM throughout. Besides, the TGI in the experiment on SK-OV-3 ovarian, in the experiment on SN12C renal, with SR leukemia, in the experiment with TK-10 renal, in the experiment with U251 CNS and in the experiment on UACC-257 melanoma was over 100 µM each time.

For `CC1=NOC2(C1)C(=O)Nc1ccccc12` (stereo not given), the TGI in the experiment on CAKI-1 renal, in the experiment with CCRF-CEM leukemia, in the experiment with EKVX NSCLC, in the experiment with HCT-116 colon, in the experiment on HOP-62 NSCLC and with LOX IMVI melanoma was over 100 µM throughout. Besides, the TGI with MCF7 breast, with MDA-MB-231 breast, in the experiment on MDA-N, in the experiment with MOLT-4 leukemia, in the experiment with NCI/ADR-RES ovarian and in the experiment on OVCAR-3 ovarian was over 100 µM throughout. The TGI with SK-OV-3 ovarian, with SN12C renal, with SR leukemia, with TK-10 renal, in the experiment on U251 CNS and in the experiment on UACC-257 melanoma was over 100 µM each time.

As for `COc1cc(-c2cc(=O)c3c(OC)c(OC)c(OC)cc3o2)c(OC)c(OC)c1OC`, the TGI in the experiment on CAKI-1 renal, in the experiment with CCRF-CEM leukemia, in the experiment on EKVX NSCLC, with HCT-116 colon, with HOP-62 NSCLC and in the experiment on LOX IMVI melanoma was over 75 µM in each case. Further, the TGI in the experiment with MCF7 breast, with MDA-MB-231 breast, with MDA-N, with MOLT-4 leukemia, in the experiment on NCI/ADR-RES ovarian and in the experiment with OVCAR-3 ovarian was over 75 µM in each case. For the same molecule, the total growth inhibition concentration (TGI) with SK-OV-3 ovarian, in the experiment on SN12C renal, in the experiment on SR leukemia, in the experiment on TK-10 renal, in the experiment on U251 CNS and in the experiment with UACC-257 melanoma was over 75 µM each time.
